Laboratory results from ChEMBL document CHEMBL3352702, “Design, synthesis and in vitro antikinetoplastid evaluation of N-acylated putrescine, spermidine and spermine derivatives” (Bioorg Med Chem Lett, 2015).
pIC50: −log10 of the molar value.

Assays:
Leishmania donovani = experiment: Antikinetoplastid activity against Leishmania donovani LV9 […] amastigotes in mouse RAW264.7 cells assessed as viability measured 24 hrs by SYBR green assay; assay type: functional, organism-based; conditions: LV9, RAW264.7, 24 h
RAW264.7 = experiment: Cytotoxicity against mouse RAW264.7 cells assessed as reduction in cell viability up to 100 uM; assay type: cell-based
Trypanosoma brucei = experiment: Antikinetoplastid activity against Trypanosoma brucei gambiense assessed as parasite growth inhibition; assay type: functional, organism-based
[1] = Selectivity index, ratio of cytotoxicity against mouse RAW264.7 cells to IC50 for Trypanosoma brucei gambiense; assay type: toxicity, cell-based; conditions: read-out: Selectivity Index

| SMILES | pIC50 (Trypanosoma brucei) | pIC50 (Leishmania donovani) | Activity (RAW264.7) | selectivity ratio [1] |
| --- | --- | --- | --- | --- |
| CC(C)(C)OC(=O)NCCCCNCCCNC(=O)OC(C)(C)C | < 4.00 | < 4.00 | Non-toxic | – |
| CC(C)(C)OC(=O)NCCCCN | < 4.00 | < 4.00 | Non-toxic | – |
| CC(C)(C)OC(=O)NCCCCN(CCC#N)C(=O)OC(C)(C)C | < 4.00 | < 4.00 | Non-toxic | – |
| COCC(=O)NCCCCNC(=O)OC(C)(C)C | < 4.00 | < 4.00 | Non-toxic | – |
| COCC(=O)NCCCCN.Cl | < 4.00 | < 4.00 | Non-toxic | – |
| COCC(=O)NCCCN(CCCCNC(=O)OC(C)(C)C)C(=O)OC(C)(C)C | < 4.00 | < 4.00 | Non-toxic | – |
| COCC(=O)NCCCNCCCCN.Cl | < 4.00 | 5.26 | Non-toxic | – |
| COCC(=O)NCCCCN(CCCNC(=O)OC(C)(C)C)C(=O)OC(C)(C)C | < 4.00 | < 4.00 | Non-toxic | – |
| COCC(=O)N(CCCCNC(=O)OC(C)(C)C)CCCNC(=O)OC(C)(C)C | < 4.00 | < 4.00 | Non-toxic | – |
| COCC(=O)N(CCCN)CCCCN.Cl | < 4.00 | < 4.00 | Non-toxic | – |
| CCCCCCCCCCCCCCCCOP(=O)([O-])OCC[N+](C)(C)C [MILTEFOSINE] | – | 4.99 | – | – |

Second part, led by results:

| pIC50 (Trypanosoma brucei) | SMILES | pIC50 (Leishmania donovani) | Activity (RAW264.7) | selectivity ratio [1] |
| --- | --- | --- | --- | --- |
| 4.94 | CC(=O)NCCC(=O)NCCSCC(=O)NCCCNCCCCN.Cl | < 4.00 | Non-toxic | – |
| 4.94 | CC(C)(C)OC(=O)NCCCCN(CCCN)C(=O)OC(C)(C)C | < 4.00 | Non-toxic | – |
| 4.81 | COCC(=O)NCCCCNCCCN.Cl | 4.30 | Non-toxic | – |
| 4.83 | CC(=O)NCCSCC(=O)NCCCNCCCCN.Cl | 4.15 | Non-toxic | – |
| 5.24 | CC(=O)NCCSCC(=O)NCCCCNCCCN.Cl | < 4.00 | Non-toxic | – |
| 5.53 | CC(=O)NCCC(=O)NCCSCC(=O)NCCCNCCCCNCCCN.Cl | < 4.00 | Non-toxic | – |
| 5.72 | CC(=O)NCCSCC(=O)NCCCNCCCCNCCCN.Cl | < 4.00 | Non-toxic | > 52 |
| 7.96 | N=C(N)c1ccc(OCCCCCOc2ccc(C(=N)N)cc2)cc1 [PENTAMIDINE] | 5.38 | – | – |
